Experimental data taken from US12180226B2, “Spirotricycle RIPK1 inhibitors and methods of uses thereof” (Merck Sharp & Dohme LLC, priority 2021, dated 2024).
Where a name gives a salt, the structure may show the parent alone.

target: RIPK1 (recombinant GST-RIPK1 kinase domain, residues 1-327) (Homo sapiens (Human), UniProt Q13546); experiment: RIPK1-ADP-Glo Enzymatic Assay; type: biochemical; conditions: ADP-Glo; 25 nM GST-RIPK1, 300 μM ATP; assay lower limit ~25 nM; read-out: RIPK1 V0 Ec50
Summary of the method: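 Compounds titrated 10-pt 1:3 from 100000 nM top (1% DMSO); 30 min preinc w/ 25 nM Sf21-expressed enzyme, RT; start w/ ATP (300 μM final) + dephos-MBP (3 μM); 150 min; ADP-Glo lumi; 4-param fit → EC50.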

Chain of RIPK1 (recombinant GST-RIPK1 kinase domain, residues 1-327) (Q13546 1-327): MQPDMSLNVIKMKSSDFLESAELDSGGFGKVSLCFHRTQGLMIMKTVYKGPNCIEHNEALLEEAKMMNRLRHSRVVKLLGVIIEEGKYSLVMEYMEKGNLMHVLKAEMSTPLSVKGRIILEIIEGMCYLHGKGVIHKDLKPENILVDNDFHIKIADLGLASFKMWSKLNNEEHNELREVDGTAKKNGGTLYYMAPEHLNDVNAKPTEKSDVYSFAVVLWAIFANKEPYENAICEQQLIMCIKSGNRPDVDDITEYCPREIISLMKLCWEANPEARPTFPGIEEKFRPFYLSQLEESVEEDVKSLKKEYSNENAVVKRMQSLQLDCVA

SMILES	EC50 [nM]
N#Cc1cnc(N2CC3(C2)O[C@@H]2CC[C@@H](c4ccccc4F)N2C3=O)nc1 [Example 4.119, 2-((5′S,7a′R)-5′-(2-fluorophenyl)-3′-oxotetrahydro-3′H-spiro[azetidine-3,2′-pyrrolo[2,1-b]oxazol]-1-yl)pyrimidine-5-carbonitrile]	537
O=C(c1cc(F)ccc1Cl)N1CCC2(CC1)O[C@@H]1CC[C@@H](c3ccccc3F)N1C2=O [Example 1.15, (5′S,7a′R)-1-(2-chloro-5-fluorobenzoyl)-5′-(2-fluorophenyl)tetrahydro-3′H-spiro[piperidine-4,2′-pyrrolo[2,1-b]oxazol]-3′-one]	33.4
N#Cc1ccc(N2CCC3(CC2)O[C@@H]2CC[C@@H](c4ccccc4)N2C3=O)n2ncnc12 [Example 4.261, 5-[(5′S,7a′R)-3′-oxo-5′-phenyltetrahydro-1H,3′H-spiro[piperidine-4,2′-pyrrolo[2,1-b] [1,3]oxazol]-1-yl][1,2,4]triazolo[1,5-a] pyridine-8-carbonitrile]	< 25
COC(=O)c1cnc(N2CCC3(CC2)O[C@@H]2CC[C@@H](c4ccccc4)N2C3=O)cc1Cl [Example 4.211, methyl 4-chloro-6-[(5′S,7a′R)-3′-oxo-5′-phenyltetrahydro-1H,3′H-spiro[piperidine-4,2′-pyrrolo[2,1-b] [1,3]oxazol]-1-yl]pyridine-3-carboxylate]	< 25
O=C(c1ccccc1F)N1CCC2(CC1)O[C@@H]1CC[C@@H](c3cc(F)cc(F)c3)N1C2=O [Example 1.9, (5′S,7a′R)-5′-(3,5-difluorophenyl)-1-(2-fluorobenzene-1-carbonyl)tetrahydro-3′H-spiro[piperidine-4,2′-pyrrolo[2,1-b] [1,3]oxazol]-3′-one]	< 25
O=C1N2[C@@H](CC[C@H]2c2ccccc2F)OC12CN(c1ncco1)C2 [Example 4.272, (5′S,7a′R)-5′-(2-fluorophenyl)-1-(1,3-oxazol-2-yl)tetrahydro-3′H-spiro[azetidine-3,2′-pyrrolo[2,1-b] [1,3]oxazol]-3′-one]	931
O=C1N2[C@@H](CC[C@H]2c2cc(F)ccc2F)OC12CCN(c1ccnc3ccnn13)CC2 [Example 4.114, (5′S,7a′R)-5′-(2,5-difluorophenyl)-1-(pyrazolo[1,5-a]pyrimidin-7-yl)tetrahydro-3′H-spiro[piperidine-4,2′-pyrrolo[2,1-b] [1,3]oxazol]-3′-one]	< 25
O=C1N2[C@@H](CC[C@H]2c2ccccc2)OC12CCN(c1ccnc3ccnn13)CC2 [Example 4.28, (5′S,7a′R)-5′-phenyl-1-(pyrazolo[1,5-a]pyrimidin-7-yl)tetrahydro-3′H-spiro[piperidine-4,2′-pyrrolo[2,1-b] [1,3]oxazol]-3′-one]	< 25
N#Cc1cc(N2CCC3(CC2)O[C@@H]2CC[C@@H](c4cccc(F)c4)N2C3=O)ncn1 [Example 4.122, 6-[(5′S,7a′R)-5′-(3-fluorophenyl)-3′-oxotetrahydro-1H,3′H-spiro[piperidine-4,2′-pyrrolo[2,1-b] [1,3]oxazol]-1-yl]pyrimidine-4-carbonitrile]	35.6
CC(C)Oc1cc(N2CCC3(CC2)O[C@@H]2CC[C@@H](c4cc(F)cc(F)c4)N2C3=O)ncc1C#N [Example 4.41, 6-[(5′S,7a′R)-5′-(3,5-difluorophenyl)-3′-oxotetrahydro-1H,3′H-spiro[piperidine-4,2′-pyrrolo[2,1-b] [1,3]oxazol]-1-yl]-4-[(propan-2-yl)oxy]pyridine-3-carbonitrile]	< 25
COc1cc(N2CCC3(CC2)O[C@@H]2CC[C@@H](c4ccccc4)N2C3=O)ncn1 [Example 4.39, (5′S,7a′R)-1-(6-methoxypyrimidin-4-yl)-5′-phenyltetrahydro-3′H-spiro[piperidine-4,2′-pyrrolo[2,1-b] [1,3]oxazol]-3′-one]	22.3
COc1cc(N2CCC3(CC2)O[C@@H]2CC[C@@H](c4cc(F)cc(F)c4)N2C3=O)ncn1 [Example 4.11, (5′S,7a′R)-5′-(3,5-difluorophenyl)-1-(6-methoxypyrimidin-4-yl)tetrahydro-3′H-spiro[piperidine-4,2′-pyrrolo[2,1-b] [1,3]oxazol]-3′-one]	< 25
N#Cc1cnc(N2CCC3(CC2)O[C@@H]2CC[C@@H](c4ccccc4F)N2C3=O)nc1 [Example 4.106, 2-((5′S,7a′R)-5′-(2-fluorophenyl)-3′-oxotetrahydro-3′H-spiro[piperidine-4,2′-pyrrolo[2,1-b]oxazol]-1-yl)pyrimidine-5-carbonitrile]	30.5
O=C1N2[C@@H](CC[C@H]2c2ccccc2)OC12CCN(c1ncnc3c1CCO3)CC2 [Example 4.217, (5′S,7a′R)-1-(5,6-dihydrofuro[2,3-d]pyrimidin-4-yl)-5′-phenyltetrahydro-3′H-spiro[piperidine-4,2′-pyrrolo[2,1-b] [1,3]oxazol]-3′-one]	25.8
N#Cc1cncc(N2CCC3(CC2)O[C@@H]2CC[C@@H](c4ccccc4)N2C3=O)n1 [Example 4.7, 6-[(5′S,7a′R)-3′-oxo-5′-phenyltetrahydro-1H,3′H-spiro[piperidine-4,2′-pyrrolo[2,1-b] [1,3]oxazol]-1-yl]pyrazine-2-carbonitrile]	113

The next lines start with the values.

EC50 [nM]	SMILES
266	O=C1N2[C@@H](CC[C@H]2c2ccccc2)OC12CCN(c1ncc(C3CC3)cn1)CC2 [Example 11.13, (5′S,7a′R)-1-(5-cyclopropylpyrimidin-2-yl)-5′-phenyltetrahydro-3′H-spiro[piperidine-4,2′-pyrrolo[2,1-b][1,3]oxazol]-3′-one]
< 25	COc1ccc(F)c(C(=O)N2CCC3(CC2)O[C@@H]2CC[C@@H](c4ccccc4)N2C3=O)c1 [Example 6.149, (5′S,7a′R)-1-(2-fluoro-5-methoxybenzene-1-carbonyl)-5′-phenyl-tetrahydro-3′H-spiro [piperidine-4,2′-pyrrolo[2,1-b][1,3]oxazol]-3′-one]
202	CC1CC2(CCN1C(=O)c1ccccc1)O[C@@H]1CC[C@@H](c3cc(F)cc(F)c3)N1C2=O (stereo partly drawn) [Example 6.106, (4R,5′S,7a′R)-1-(benzenecarbonyl)-5′-(3,5-difluorophenyl)-2-methyltetrahydro-3′H-spiro[piperidine-4,2′-pyrrolo[2,1-b] [1,3]oxazol]-3′-one]
< 25	O=C(c1cc(F)c(F)cc1F)N1CCC2(CC1)O[C@@H]1CC[C@@H](c3cc(F)cc(F)c3)N1C2=O [Example 5.4, (5′S,7a′R)-5′-(3,5-difluoro-phenyl)-1-(2,4,5-trifluoro-benzene-1-carbonyl)tetra-hydro-3′H-spiro[piperi-dine-4,2′-pyrrolo[2,1-b] [1,3]oxazol]-3′-one]
572	Cc1ncc(C(=O)N2CCC3(CC2)O[C@@H]2CC[C@@H](c4cc(F)cc(F)c4)N2C3=O)cn1 [Example 6.77, (5′S,7a′R)-5′-(3,5-difluorophenyl)-1-(2-methylpyrimidine-5-carbonyl)tetrahydro-3′H-spiro[piperidine-4,2′-pyrrolo[2,1-b] [1,3]oxazol]-3′-one]
685	Cc1ccccc1S(=O)(=O)N1CCC2(CC1)O[C@@H]1CC[C@@H](c3cc(F)cc(F)c3)N1C2=O [Example 8.2, (5′S,7a′R)-5′-(3,5-difluorophenyl)-1-[(2-methylphenyl)sulfonyl] tetrahydro-3′H-spiro[piperidine-4,2′-pyrrolo[2,1-b][1,3]oxazol]-3′-one]
38	CC1CC2(CCN1C(=O)c1ncccc1F)O[C@@H]1CC[C@@H](c3cccc(F)c3)N1C2=O (stereo partly drawn) [Example 6.162, (4R,5′S,7a′R)-5′-(3-fluorophenyl)-1-(3-fluoropyridine-2-carbonyl)-2-methyl-tetrahydro-3′H-spiro [piperidine-4,2′-pyrrolo[2,1-b][1,3]oxazol]-3′-one]
49	COc1ccc([C@@H]2CC[C@H]3OC4(CCN(C(=O)c5ccccc5)CC4)C(=O)N32)cc1 [Example 17.8, (5′S,7a′R)-1-benzoyl-5′-(4-methoxyphenyl)tetrahydro-3′H-spiro[piperidine-4,2′-pyrrolo[2,1-b]oxazol]-3′-one]
< 25	O=C(c1cccc(F)c1)N1CCC2(CC1)O[C@@H]1CC[C@@H](c3ccccc3)N1C2=O [Example 6.154, (5′S,7a′R)-1-(3-fluoro-benzene-1-carbonyl)-5′-phenyltetrahydro-3′H-spiro[piperidine-4,2′-pyrrolo[2,1-b] [1,3]oxazol]-3′-one]
< 25	O=C(c1cccc(C2CC2)c1)N1CCC2(CC1)O[C@@H]1CC[C@@H](c3ccccc3)N1C2=O [Example 6.156, (5′S,7a′R)-1-(3-cyclopropylbenzene-1-carbonyl)-5′-phen-yltetrahydro-3′H-spiro[piperidine-4,2′-pyrrolo[2,1-b][1,3]oxazol]-3′-one]
188	O=C1N2[C@@H](CC[C@H]2c2cc(F)cc(F)c2)OC12CCN(c1nccn3ccnc13)CC2 [Example 13.15, (5′S,7a′R)-5′-(3,5-difluorophenyl)-1-(imidazo[1,2-a]pyrazin-8-yl)tetrahydro-3′H-spiro[piperidine-4,2′-pyrrolo[2,1-b]oxazol]-3′-one, TFA salt]
601	Cc1ncc(C)c(N2CCC3(CC2)O[C@@H]2CC[C@@H](c4ccccc4)N2C3=O)n1 [Example 11.34, (5′S,7a′R)-1-(2,5-dimethylpyrimidin-4-yl)-5′-phenyltetrahydro-3′H-spiro[piperidine-4,2′-pyrrolo[2,1-b][1,3]oxazol]-3′-one]
38.8	O=C(c1cccnc1)N1CCC2(CC1)O[C@@H]1CC[C@@H](c3cc(F)cc(F)c3)N1C2=O [Example 5.64, (5′S,7a′R)-5′-(3,5-difluoro-phenyl)-1-nicotinoyltetra-hydro-3′H-spiro[piperidine-4,2′-pyrrolo[2,1-b]oxazol]-3′-one]
